Reference: patent US20260248767A1, “METHODS FOR INDUCING FERROPTOSIS IN CANCER” (Board of Regents, The University of Texas System, priority 2023, published 2026)
Entries after “also recorded” stand apart in the source; their conditions may differ.

Assays:
[1] = biological target: T1, SHMT2 protein (Homo sapiens, UniProt P34897); assay: SHMT2 tetramer formation (immunoblot); type: cell-based; conditions: sulfite treatment
T1 construct: endogenous in cells
T1 sequence (P34897 30-504): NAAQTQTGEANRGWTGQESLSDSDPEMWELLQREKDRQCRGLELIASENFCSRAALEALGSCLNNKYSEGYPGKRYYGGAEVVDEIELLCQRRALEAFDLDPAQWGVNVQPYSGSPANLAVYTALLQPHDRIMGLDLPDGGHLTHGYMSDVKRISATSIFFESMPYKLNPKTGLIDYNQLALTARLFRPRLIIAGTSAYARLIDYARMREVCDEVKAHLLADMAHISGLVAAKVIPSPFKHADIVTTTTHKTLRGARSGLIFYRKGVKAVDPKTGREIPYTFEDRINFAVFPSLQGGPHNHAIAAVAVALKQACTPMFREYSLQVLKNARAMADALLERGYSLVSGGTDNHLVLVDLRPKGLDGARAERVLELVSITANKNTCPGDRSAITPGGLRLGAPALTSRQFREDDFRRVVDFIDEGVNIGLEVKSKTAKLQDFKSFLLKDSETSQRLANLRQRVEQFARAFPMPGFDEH
Source text: Exogenously expressed SHMT2 was also able to form tetramer (FIG. 8B).
To generate cell lines with stable overexpression of C-terminal-tagged SHMT2, the SHMT2 cDNA was cloned into the lentivirus expression vector pLEX_307 SFB. HEK293T cells were transfected with either pLEX_307 SFB-empty vector, or -SHMT2, together with the lentiviral packaging plasmids psPAX2 and pMD2.G using Lipofectamine 2000 reagent (Life Technologies, #11668030) according to the manufacturer's instructions and as described previously (Lei, G. et al. Oncogene 40, 3533-3547, doi: 10.1038/s41388-021-01790-w (2021); Lei, G. et al. Cell Res 30, 146-162, doi: 10.1038/s41422-019-0263-3 (2020)). Forty-eight hours later, lentivirus was collected and filtered, and the target cell lines were infected with lentivirus. Twenty-four hours after infection, antibiotic was added to the medium to obtain stable cell lines. Protein expression levels were determined by immunoblotting. To generate knockdown cell lines, lentiviral transduction with IDH1/ME1/MTHFD21 shRNA vectors was conducted as described previously (Lin, A. et al. Cancer Res 74, 1682-1693, doi: 10.1158/0008-5472.CAN-13-1729 (2014)). Forty-eight hours later, upon puromycin antibiotic selection, protein expression levels were determined by immunoblotting.
Briefly, cells were lysed in NP-40 lysis buffer (50 mM Tris [pH 7.4], 250 mM NaCl, 5 mM EDTA, 50 mM NaF, 1 mM Na3VO4, 1% Nonidet P40) containing complete mini protease inhibitors (Roche). The protein concentration of lysates was quantified using BCA Protein Assay Kit from Life Technologies (#23227). 20 μg of total protein was loaded into SDS-PAGE gel and transferred to a PVDF membrane (Bio-Rad) using standard techniques. […]

[2] = system: one-carbon metabolism; assay: dTTP levels and labelling (serine through one-carbon metabolism); type: cell-based; conditions: sulfite vs vehicle treated samples, over time
Description: The total dTTP, M+1dTTP and M+2 dTT were measured in the presence or absence of sulfite.
The complete platform consists of an Accela 1250 HPLC system, Accela Open Autosampler, MayLab Mistraswitch column oven and Exactive orbitrap mass spectrometer, controlled by the Xcalibur 3.0.63 software package. Chromatography was performed with a Phenomenex Synergi Hydro-RP column (100×2 mm, 2.5 μm particle size). Solvent A is 10 mM tributylamine and 15 mm acetic acid in water; Solvent B is methanol. The gradient is: 0 min, 0% B; 2.5 min, 0% B; 5 min, 20% B; 7.5 min, 20% B; 13 min, 55% B; 15.5 min, 95% B; 18.5 min, 95% B; 19 min, 0% B; 25 min, 0% B. The injection volume was 10 μl. The column temperature was set to 40° C., and the flow rate was 200 μl/min. The Exactive was operated in negative ionization mode with an electrospray ionization interface. The instrument parameters are as follows: sheath gas flow rate 30 (arbitrary units), aux gas flow rate 10 (arbitrary units), sweep gas flow rate 3 (arbitrary units), spray voltage 3 kV, capillary temperature 325° C., capillary voltage −25 V, tube lens voltage −50 V. The scan range was set to 80-1,000 m/z, with a maximum inject time of 250 ms, resolution of 100,000 at 1 Hz, and AGC (automatic gain control) target 1×10^6. The data were analyzed using the MAVEN software suite with signal intensity determined as the Peak Area (Top). For metabolic labelling experiments, the data were corrected to account for the natural abundance of nitrogen-15 using IsoCorrectoR (Heinrich, P. et al. Sci Rep 8, 17910, doi: 10.1038/s41598-018-36293-4 (2018)).

[3] = system: HT-1080 cells; assay: Lipid peroxidation measurement (C11-BODIPY 581/591, flow cytometry); type: cell-based, human; conditions: combined with RSL3, compared to RSL3 alone
Description: Cells were seeded on 12-well plates and incubated overnight. After treating with compounds for indicated time, cells were incubated in media containing 5 μM C11-BODIPY 581/591 (Invitrogen) for 30 min at 37° C. Then cells were trypsinized and collected. […] All experiments were performed in triplicates.

[4] = system: HT-1080, 786-O, U87, T98G, RCC4, H1299, A549, Hela and Hs578T; assay: Cell death assay (PI flow cytometry), panel of cancer cell lines; type: cell-based, human
Description: All cell lines used in this study were free of mycoplasma contamination (per testing done by the vendor). All the cells were cultured in a 37° C. incubator in a 5% CO2 atmosphere. H1299 cells were cultured in RPMI-1640 medium supplemented with 10% fetal bovine serum and 10,000 U/mL penicillin-streptomycin. HT-1080, 786-O, U87, T98G, RCC4, A549, Hela and Hs578T cells were cultured in Dulbecco modified Eagle medium (DMEM) supplemented with 10% fetal bovine serum and 10,000 U/mL of penicillin-streptomycin.
After treatment, cells were trypsinized and collected. […] All experiments were performed in triplicates.

O=S([O-])[O-].[Na+].[Na+] [sulfite, sodium sulfite]
tetramer formation of endogenous SHMT2 protein [1]: disrupt the tetramer formation; also recorded: inhibits the tetramer formation
tetramer formation of exogenous expressed SHMT2 [1]: inhibit the tetramer formation
tetramer formation of exogenous expressed SHMT2 ([1]; listed as Sulfite): inhibited the tetramer formation
M+1dTTP [2]: decreased over time
M+2 dTT [2]: decreased over time
total dTTP [2]: decreased over time
relative lipid peroxidation level in combination with RSL3 [3]: significantly increased
ferroptosis (cell death) in combination with RSL3 ([4]; RSL3 0.2-2.0 μm plus sulfite 0.5-2 mM depending on cell line): induced statistically significant ferroptosis
induction of ferroptosis (cell death) ([4]; sulfite alone, 0.5-2 mM depending on cell line): did not show induction of ferroptosis
